Results as given in patent US6900198B2, “Synthetic catalytic free radical scavengers useful as antioxidants for prevention and therapy of disease” (Eukarion, Inc., priority 1995, dated 2005).

What was measured:
[1] = tested on: endotoxin-induced ALI in pigs; assay: Acute lung injury in endotoxemic pigs; assay type: in vivo; details: treatment begun prior to LPS infusion
Experimental: All pigs were pre-treated at T=−18 h with Escherichia coli 0111:B4 LPS (20 μg/kg). Pigs in the RL group (n=4) received no further treatment. […] Lung wet-to-dry weight ratio was determined post-mortem. Lung lipid peroxidation was estimated fluorometrically by measuring thiobarbituric acid reactive products in the lipid fraction of lung parenchymal tissue harvested at T=300 min.

[2] = tested on: Hippocampal slices; assay: Anoxia in hippocampal slices, EPSP recovery; assay type: cell-based, Sprague-Dawley rats; details: C7 50 μM
From the text: Anoxia in hippocampal slices. […] A glass recording micropipet was positioned in CA1 stratum radiatum to record excitatory postsynaptic potential (EPSPs) generated by electrical stimulation of the Schaffer-commissural pathway by a bipolar stimulation electrode at a frequency of 0.033 Hz. During anoxic episodes, the oxygen supply was replaced with 100% N2 gas. N2 was supplied for 90 seconds following electrical silence after which O2 was reintroduced. Recovery of EPSPs (both slope and amplitude) was recorded for 50 minutes, at which time the final viability of the slices was determined, with viability being defined as the ability of the slice to generate a 3 mV EPSP.

[3] = SOD activity, cytochrome c as acceptor, IC50 (Example 2); assay type: biochemical; details: read-out: SOD activity IC50 (half-maximally active concentration)
Experimental: Superoxide dismutase (SOD) activity was assayed by following the inhibition of the reduction of an electron acceptor molecule in the presence of the free-radical generating system xanthine/xanthine oxidase (McCord et al. (1973) Superoxide and Superoxide Dismutase in “Oxidases and Related Redox Systems, vol. I, King et al. eds., University Park press, Baltimore, pp. 51-76). The assay mixture consisted of 50 mM sodium phosphate, pH 7.8, 120 μM xanthine, 0.2 units/ml xanthine oxidase, with acceptor molecule and salen manganese compound, as indicated. Assays were conducted at 27±0.2° C. using a water-jacketed cell holder in a Beckman DU7400 spectrophotometer. In most cases, oxidized cytochrome c, at 0.13 mg/ml, was employed as acceptor and its reduction was monitored spectrophotometrically at 550 nm. In some experiments, nitroblue tetrazolium (NBT), at 80 μM, was substituted for cytochrome c as the acceptor. NBT reduction was also monitored at 550 nm. An estimated extinction coefficient for NBT reduction, 20,800 M^−1cm^−1, determined empirically by exhaustive reduction of NBT in the reaction mixture described above, was employed where indicated. This value agreed well with reported extinction coefficients for reduced tetrazolium dyes. […] Conversion of xanthine to urate was calculated using ε290's of […] for urate and 4050 M^−1cm^−1 for xanthine. […]

[4] = tested on: Human dermal fibroblasts (HF cells); assay: Protection against t-butyl hydroperoxide toxicity in human fibroblasts (XTT); assay type: cell-based; details: 80 μM with 0.5 mM t-BHP
Experimental: Human dermal fibroblasts (HF cells) were obtained from the American type tissue Culture Collection at passage 1 and cultured and propagated in a medium (HF medium) consisting of Dulbecco's Modified Eagle's Medium with 4.5 g/l D-glucose, 10% calf serum 4 mM glutamine, 50 units/ml penicillin, and 50 μg/ml streptomycin in a 37° C. humidified incubator equilibrated with 5% CO2. Cells were used at passages 5 or 6 for experiments. For cell protection assays, HF cells were seeded at a density of about 15,000 cells per cm2 onto 96-well culture plates and allowed to grow to confluence. […] After 2 hr., the absorbance at 490 nm was measured in a BioRad (Richmond, Calif.) Model 3550 plate-reader, using a reference wavelength of 655 nm. […] Absorbance measurements for blank wells, containing HF medium and XTT reagent but no cells, were also determined. […] Fresh HF medium was then added and cell viability assessed using the XTT reagent as described above. […]
Cell protection assays were performed as described under Experimental Procedures with salen-manganese complexes administered at the indicated concentrations and t-BHP at 0.5 mM. Cell viability was assessed using the XTT reagent as described and is expressed as the absorbance at 490 nm uncorrected for blank. […]

[5] = tested on: neurons; assay: Amyloid peptide toxicity in neurons in vitro; assay type: cell-based
[6] = tested on: acidosis-induced mucosal injury; assay: In vitro model for acidosis-induced mucosal injury

[Cl][Mn]1[O]c2ccccc2C=NCCN=Cc2ccccc2[O]1 [Compound C7]
effect on manifestations of LPS-induced ALI [1]: prevents many of the manifestations of LPS-induced ALI
protection against anoxia-induced decrease in synaptic response in CA1 (EPSP slope and amplitude) [2]: significant degree of protection
IC50 [3]: 3.2 µM
reduced viability at 80 μM relative to 40 μM together with t-BHP [4]: possible synergistic toxicity with t-BHP
protection of neurons against amyloid peptide toxicity [5]: protect neurons against amyloid peptide toxicity
protection in acidosis-induced mucosal injury [6]: protective
